Experimental data from US20100261734A1, “Methods of Treating Bladder Dysfunction Using Netupitant” (Helsinn Healthcare S.A., priority 2009, published 2010).
Where two headings read alike, the source gives them in different places.

Columns and labels:
[1] = test system: acetic acid (AA)-induced overactive bladder (OAB); assay: Cystometric parameters in acetic acid (AA)-induced overactive bladder (OAB) in anesthetized guinea-pigs; assay type: in vivo; conditions: for Maximal ICI (intercontraction interval) increase, % of variation from basal values: 0.2% AA bladder infusion, anesthetized guinea-pigs; for Effect on ICI (intercontraction interval): from 10 min up to 60 min post-administration, 0.2% AA
Description: The effect of netupitant (N) was studied on cystometric parameters in acetic acid (AA)-induced overactive bladder (OAB) in anesthetized guinea-pigs. Results were compared with those obtained with a control and L-733,060 (L), another potent and selective NK1 receptor antagonist. Adult female guinea-pigs were anesthetized with urethane, and the jugular vein and urinary bladder were catheterized for drug administration and intravesical pressure recording, respectively. The urinary bladder was continuously infused with either saline or 0.2% AA. After 30 min stabilization, N, L or their vehicle (glucose 5%) were administered in separate animals (n=10 per group). Intercontraction interval (ICI, sec), and amplitude of micturition (AM, mmHg) were analyzed at 10, 20, 40 and 60 min post administration. For each dose, maximal effects were expressed as % of variation from respective basal values. ED50% (doses inducing a 50% increase in ICI) were calculated using linear regressions.

[2] = Pharmacokinetic profile of netupitant in humans after a single oral dose; assay type: in vivo; conditions: for Cl/F / Kel / tlag / AUC(0-inf) / AUC(0-t) / Cmax / Tmax / half-life / Vd/F: healthy volunteers, mean, N = 4; for AUC(0-inf) / AUC(0-t) / Cmax / Tmax / half-life / Vd/F: human, plasma; for Vd/F: read-out: Vz/F
Method: The pharmacokinetic profile of netupitant (N) in humans was examined in a randomised, double-blind, placebo controlled study comprising 5 dose groups (10, 30, 100, 300 and 450 mg) with 6 subjects in each group, of whom four received netupitant and two received placebo.

With `FC(F)(F)c1cc(CO[C@H]2CCCN[C@H]2c2ccccc2)cc(C(F)(F)F)c1` [L-733,060, reference compound] the “Maximal ICI (intercontraction interval) increase, % of variation from basal values” ([1]; 3 mg/kg i.v.) was “+40±10%”, the “Maximal ICI (intercontraction interval) increase, % of variation from basal values” ([1]; 10 mg/kg i.v.) was “+76±11%” and the “Maximal effect on amplitude of micturition (AM), % of variation from basal values” ([1]; 10 mg/kg, 10 min after administration) was −28±5%. For the same compound, the “Effect on amplitude of micturition (AM)” value ([1]; 10 mg/kg, p<0.05 versus basal values) was “decreased significantly AM”, the “Effect on ICI (intercontraction interval)” value [1] was “dose-dependently and significantly increased ICI” and the “ED50% (dose inducing a 50% increase in ICI)” value ([1]; i.v., calculated using linear regressions) was 5.13 mg/kg.
With `Cc1ccccc1-c1cc(N2CCN(C)CC2)ncc1N(C)C(=O)C(C)(C)c1cc(C(F)(F)F)cc(C(F)(F)F)c1` [netupitant, 2-[3,5-bis(trifluoromethyl)phenyl]-N,2-dimethyl-N-[4-(2-methylphenyl)-6-(4-methylpiperazin-1-yl)pyridin-3-yl]propanamide] the “Maximal ICI (intercontraction interval) increase, % of variation from basal values” ([1]; 0.1 mg/kg i.v.) was “+51±15%”, the “Maximal ICI (intercontraction interval) increase, % of variation from basal values” ([1]; 0.3 mg/kg i.v.) was “+44±8%” and the “Maximal ICI (intercontraction interval) increase, % of variation from basal values” ([1]; 1 mg/kg i.v.) was “+69±8%”. The “Maximal effect on amplitude of micturition (AM), % of variation from basal values” ([1]; 1 mg/kg, 20 min after administration) was −13±6%, the “Maximal ICI (intercontraction interval) increase, % of variation from basal values” ([1]; 3 mg/kg i.v.) was “+96±20%” and the ED50 ([1]; Cavia porcellus, iv, calculated using linear regressions, read-out: ED50% (dose inducing a 50% increase in ICI)) was 0.62 mg/kg. The “Potency relative to L in view of ED50% values” ([1]; N versus L) was “about 16 fold”, the “Effect on amplitude of micturition (AM)” value ([1]; doses 0.1-3 mg/kg) was “devoid of significant effect on AM” and the “Effect on ICI (intercontraction interval)” value [1] was “dose-dependently and significantly increased ICI”. The Cl/F ([2]; 10 mg oral) was 44.0 L/h, the Kel ([2]; 10 mg oral) was 0.0435 h⁻¹ and the tlag ([2]; 10 mg oral) was 1.88 h. It also gave a Cl/F ([2]; 30 mg oral) of 35.5 L/h, a Kel ([2]; 30 mg oral) of 0.027 h⁻¹ and a tlag ([2]; 30 mg oral) of 1.75 h. It also gave a Cl/F ([2]; 100 mg oral) of 22.1 L/h, a Kel ([2]; 100 mg oral) of 0.0139 h⁻¹ and a tlag ([2]; 100 mg oral) of 1.88 h. The Cl/F ([2]; 300 mg oral) was 12.6 L/h, the Kel ([2]; 300 mg oral) was 0.0154 h⁻¹ and the tlag ([2]; 300 mg oral) was 0.81 h. The Cl/F ([2]; 450 mg oral) was 10.6 L/h, the Kel ([2]; 450 mg oral) was 0.0124 h⁻¹ and the tlag ([2]; 450 mg oral) was 1.26 h. It also gave an AUC(0-inf) ([2]; 10 mg oral) of 233 ng·h/mL, an AUC(0-t) ([2]; 10 mg oral) of 140 ng·h/mL and a Cmax ([2]; 10 mg oral) of 8.76 ng/mL. For the same compound, the Tmax ([2]; 10 mg oral) was 5.75 h, the half-life ([2]; 10 mg oral) was 16 h and the Vd/F ([2]; 10 mg oral) was 1010 L. For the same compound, the AUC(0-inf) ([2]; 30 mg oral) was 995 ng·h/mL, the AUC(0-t) ([2]; 30 mg oral) was 870 ng·h/mL and the Cmax ([2]; 30 mg oral) was 36 ng/mL. It also gave a Tmax ([2]; 30 mg oral) of 5.76 h, a half-life ([2]; 30 mg oral) of 29.1 h and a Vd/F ([2]; 30 mg oral) of 1320 L. It also gave an AUC(0-inf) ([2]; 100 mg oral) of 4800 ng·h/mL, an AUC(0-t) ([2]; 100 mg oral) of 4360 ng·h/mL and a Cmax ([2]; 100 mg oral) of 168 ng/mL. The Tmax ([2]; 100 mg oral) was 5 h, the half-life ([2]; 100 mg oral) was 54.2 h and the Vd/F ([2]; 100 mg oral) was 1710 L. For the same compound, the AUC(0-inf) ([2]; 300 mg oral) was 25200 ng·h/mL, the AUC(0-t) ([2]; 300 mg oral) was 23100 ng·h/mL and the Cmax ([2]; 300 mg oral) was 747 ng/mL. The Tmax ([2]; 300 mg oral) was 5 h, the half-life ([2]; 300 mg oral) was 48.1 h and the Vd/F ([2]; 300 mg oral) was 850 L. The AUC(0-inf) ([2]; 450 mg oral) was 43700 ng·h/mL, the AUC(0-t) ([2]; 450 mg oral) was 36600 ng·h/mL and the Cmax ([2]; 450 mg oral) was 1130 ng/mL. The Tmax ([2]; 450 mg oral) was 5.76 h, the half-life ([2]; 450 mg oral) was 59.7 h and the Vd/F ([2]; 450 mg oral) was 881 L. The “Plasma exposure (Cmax and AUC) versus dose” value ([2]; oral 10-450 mg, humans) was “increased super-proportionally with dose” and the “Time at which maximum plasma levels are reached post-dose” value ([2]; oral administration, humans) was “approximately 5 hours”.
